In US6703371B1, “Preparations for reducing oxygen consumption during physical efforts” (priority 1999, dated 2004):
Where two headings read alike, the source gives them in different places.

How the values were obtained:
[1] = Oxygen-sparing action during physical work, general findings in the description; assay type: in vivo; details: result in words; for Oxygen demand after administration: even occasionally increased
test subject [2] = test: Bicycle ergometer test at 100 W: antagonism between inactive (1st dosage) and active (2nd dosage) substances (Example 1b); assay type: in vivo, human; details: for Change in the oxygen consumption after 2nd dosage: relative to after 1st dosage; for Average heart rate after 1st dosage: 10-minute test at 100 W; for Average heart rate before: 10-minute control test at 100 W before the 1st dosage
Method: (§1) 13 to Mar. 6, 1999, with a subject in good physical condition under standard conditions. The subject was required each morning in the fasting state to perform successively (without interruption) at mechanical power output of 100 W, 125 W and 150 W, each lasting 10 minutes (total test duration 30 minutes each time). […] The heat production induced by mechanical exertion was calculated from the changes in the heart rate. An alternative possibility is also to determine it on the basis of the increase in humidity caused by the perspiration (the tests are carried out in a closed room) or reduction in weight (1 g of water=2.26 kJ). […] The values indicated in table la for the “average heart rate” are in each case averages over the 30-minute duration of the test; relative values for the oxygen consumption were established on the basis of the heart rates in a known manner, and the relative values indicated in Table 1a are based on the oxygen consumption on the first day (=100%); the values listed in the column “heat production” in Table 1a give the percentage deviation of the heat production, established on the basis of the perspiration, from the average from all the tests.
(§2) It is known that the oxygen uptake can be determined by measuring the heart rate as a function of the mechanical exertion. This ergometric method is based on establishing the oxygen transport volume through the action of the heart. Since the stroke volume is essentially constant irrespective of the intensity of the mechanical work, and the increased oxygen demand caused by the increase in work results in an increase in the heart rate, the quantity of the transported oxygen can be established by determining the additional heartbeats caused by the work. A 3-stage ergometer as recommended by the World Health Organization (WHO) is used in physiology research institutes and fitness clubs around the world.

test subject [3] = test: Bicycle ergometer test at 100 W: active ingredient, sucrose, further active ingredient, amino acid/vitamin product (Example 1c); assay type: in vivo, human; details: for Average heart rate after 4th dos.: 4th dosage 100 mg of Na glutamate, 0.3 mg of folic acid, 5 μg of cyanocobalamin in 10 mg of gelatin; for Average heart rate after 2nd dos.: then 2nd dosage 2.5 g of sucrose
Method: as §1, §2

test subject [4] = test: as above; assay type: in vivo, human; details: for Change in oxygen consumption after 2nd dos.: 2nd dosage 2.5 g of sucrose; for Change in oxygen consumption after 2nd dos. / Change in oxygen consumption after 4th dos. / Change in oxygen consumption after 3rd dos.: relative to preceding dosage; for Change in oxygen consumption after 4th dos.: 4th dosage Na glutamate/folic acid/cyanocobalamin/gelatin; for Average heart rate after 1st dos.: 10-minute test at 100 W
test subject [5] = assay type: in vivo, human; details: Homo sapiens, 10 min
[6] = 2nd dosage 1 mg, after 50 mg of opipramol, 100 W
[7] = 2nd dosage 1 mg, after 1st dosage of 50 mg of opipramol, 100 W
[8] = 3rd dosage further 1 mg of active ingredient after sucrose
[9] = after 1 mg of active ingredient
[10] = 1st dosage 1 mg as dilute aqueous solution
[11] = 3rd dosage further 1 mg of active ingredient
[12] = 1st dosage 10 mg in 20 ml of water
[13] = read-out: Change in the oxygen demand
[14] = read-out: Heat production (deviation from the average of all the tests)

## CN1CC[C@]23c4c5ccc(O)c4O[C@H]2[C@@H](O)C=C[C@H]3[C@H]1C5 [morphine]
[1]
  Suitability for reducing the oxygen consumption during physical work: suitable

## CCOC(=O)n1ccn(C)c1=S [carbimazole]
[1]
  Suitability for reducing the oxygen consumption during physical work: suitable

## CN(C)CCN1C(=O)c2ccccc2N(C)c2ccccc21 [dibenzepin]
Test subject [2]; [6]
  Change in the oxygen consumption after 2nd dosage: −59%
Test subject [2]; [7]
  Average heart rate after 2nd dosage: 88.3 per minute
Test subject [3]; 1 mg series
  Average heart rate after 4th dos.: 86.4 per minute
Test subject [3]; [8]
  Average heart rate after 3rd dos.: 115 per minute
Test subject [3]; [9]
  Average heart rate after 2nd dos.: 111.5 per minute
[1]
  Suitability for reducing the oxygen consumption during physical work: suitable
Test subject [4]; 1 mg series
  Change in oxygen consumption after 2nd dos.: +69%
  Change in oxygen consumption after 4th dos.: −57%
Test subject [4]; [10]
  Average heart rate after 1st dos.: 77.2 per minute
Test subject [4]; [11]
  Change in oxygen consumption after 3rd dos.: 0%

## CN(C)CCOC(C)(c1ccccc1)c1ccccn1 (stereo not drawn) [doxylamine]
[1]
  Oxygen demand after administration: not reduced

## CN(C)CC/C=C1/c2ccccc2Sc2ccc(Cl)cc21 [chlorprothixen, chlorprothixene]
Test subject [2]; [12]
  Average heart rate after 1st dosage: 124.6 per minute
Test subject [2]; 1st dosage 10 mg, 100 W
  Change in the oxygen consumption after 1st dosage: +46%
Test subject [2]
  Average heart rate before: 101.7 per minute
[1]
  Oxygen demand after administration: not reduced

## CN1C(=O)CN=C(c2ccccc2F)c2cc([N+](=O)[O-])ccc21 [flunitrazepam]
Test subject [5]; [13]
  change in vivo at 1 mg: -39%
Test subject [5]; [14]
  change in vivo at 1 mg: -40%
[1]
  Suitability for reducing the oxygen consumption during physical work: suitable

## CN(C)CCCN1c2ccccc2CCc2ccc(Cl)cc21 [clomipramine]
Test subject [2]; 1st dosage 25 mg in 20 ml of water
  Average heart rate after 1st dosage: 134.8 per minute
Test subject [2]; Homo sapiens, 1st dosage 25 mg, 100 W, read-out: Change in the oxygen consumption after 1st dosage
  change in vivo at 25 mg: 42%
[1]
  Oxygen demand after administration: not reduced

## Cl.Cl.OCCN1CCN(CCC=C2c3ccccc3Sc3ccc(C(F)(F)F)cc32)CC1 (mixture of isomers) [flupentixol]
Test subject [2]; 1st dosage 0.5 mg in 20 ml of water
  Average heart rate after 1st dosage: 118.4 per minute
Test subject [2]; 1st dosage 0.5 mg, 100 W
  Change in the oxygen consumption after 1st dosage: +32%
Test subject [2]
  Average heart rate before: 102.6 per minute
[1]
  Oxygen demand after administration: not reduced

## O=C1Nc2ccc(Cl)cc2C(c2ccccc2Cl)=NC1O (stereo not drawn) [lorazepam]
Test subject [2]; 1st dosage 1 mg in 20 ml of water
  Average heart rate after 1st dosage: 121.5 per minute
Test subject [2]; Homo sapiens, 1st dosage 1 mg, 100 W, read-out: Change in the oxygen consumption after 1st dosage
  change in vivo at 1 mg: 34%
[1]
  Oxygen demand after administration: not reduced

## O=C1Nc2ccc(Cl)cc2C(c2ccccc2)=NC1O (stereo not drawn) [oxazepam]
Test subject [5]; [13]
  change in vivo at 1 mg: 0%
Test subject [5]; [14]
  change in vivo at 1 mg: 7%
Test subject [2]; Homo sapiens, 1st dosage 7 mg, 100 W, read-out: Change in the oxygen consumption after 1st dosage
  change in vivo at 7 mg: 33%

## CN1CCN(C(=O)OC2c3nccnc3C(=O)N2c2ccc(Cl)cn2)CC1 (stereo not drawn) [zopiclone]
Test subject [5]; [14]
  change in vivo at 1 mg: -44%
[1]
  Suitability for reducing the oxygen consumption during physical work: suitable

## CN1CCC[C@@H]1CCO[C@](C)(c1ccccc1)c1ccc(Cl)cc1 [clemastine]
[1]
  Suitability for reducing the oxygen consumption during physical work: suitable

## CN(C)CCC=C1c2ccccc2CCc2ccccc21 [amitriptyline]
Test subject [2]; [12]
  Average heart rate after 1st dosage: 119.3 per minute
Test subject [2]; Homo sapiens, 1st dosage 10 mg, 100 W, read-out: Change in the oxygen consumption after 1st dosage
  change in vivo at 10 mg: 71%
[1]
  Oxygen demand after administration: not reduced

## CN1C(=O)CC(=O)N(c2ccccc2)c2cc(Cl)ccc21 [clobazam]
Test subject [5]; [13]
  change in vivo at 1 mg: -51%
Test subject [5]; [14]
  change in vivo at 1 mg: -49%

## CN1CCC(=C2c3ccccc3C=Cc3ccccc32)CC1 [cyproheptadine]
Test subject [2]; 2nd dosage 0.2 mg, after 5 mg of chlordiazepoxide, 100 W
  Change in the oxygen consumption after 2nd dosage: −76%
Test subject [2]; 2nd dosage 0.2 mg, after 10 mg of amitriptyline, 100 W
  Change in the oxygen consumption after 2nd dosage: −63%
Test subject [2]; 2nd dosage 0.2 mg, after 1st dosage of 5 mg of chlordiazepoxide, 100 W
  Average heart rate after 2nd dosage: 88.5 per minute
Test subject [2]; 2nd dosage 0.2 mg, after 1st dosage of 10 mg of amitriptyline, 100 W
  Average heart rate after 2nd dosage: 87.6 per minute
Test subject [3]; 0.2 mg series
  Average heart rate after 4th dos.: 83.9 per minute
Test subject [3]; 3rd dosage further 0.2 mg of active ingredient after sucrose
  Average heart rate after 3rd dos.: 106.4 per minute
Test subject [3]; after 0.2 mg of active ingredient
  Average heart rate after 2nd dos.: 109.1 per minute
Test subject [4]; 0.2 mg series
  Change in oxygen consumption after 2nd dos.: +69%
  Change in oxygen consumption after 4th dos.: −45%
Test subject [4]; 1st dosage 0.2 mg as dilute aqueous solution
  Average heart rate after 1st dos.: 74.7 per minute
Test subject [4]; 3rd dosage further 0.2 mg of active ingredient
  Change in oxygen consumption after 3rd dos.: −5%

## OCCN1CCN(CCCN2c3ccccc3C=Cc3ccccc32)CC1 [opipramol]
[1]
  Oxygen demand after administration: not reduced

## CNC1=Nc2ccc(Cl)cc2C(c2ccccc2)=[N+]([O-])C1 [chlordiazepoxide]
Test subject [5]; [13]
  change in vivo at 1 mg: 0%
Test subject [5]; [14]
  change in vivo at 1 mg: 14%
Test subject [2]; 1st dosage 5 mg in 20 ml of water
  Average heart rate after 1st dosage: 126.4 per minute
Test subject [2]; Homo sapiens, 1st dosage 5 mg, 100 W, read-out: Change in the oxygen consumption after 1st dosage
  change in vivo at 5 mg: 29%

## COc1ccc2c3c1O[C@H]1[C@@H](O)CC[C@H]4[C@@H](C2)N(C)CC[C@@]341 [dihydrocodeine]
[1]
  Suitability for reducing the oxygen consumption during physical work: suitable

## CSc1ccc2c(c1)N(CCC1CCCCN1C)c1ccccc1S2 (stereo not drawn) [thioridazine]
Test subject [2]; 2nd dosage 1 mg, after 10 mg of imipramine, 100 W
  Change in the oxygen consumption after 2nd dosage: −56%
Test subject [2]; 2nd dosage 1 mg, after 1st dosage of 10 mg of imipramine, 100 W
  Average heart rate after 2nd dosage: 81.5 per minute
Test subject [3]; 1 mg series
  Average heart rate after 4th dos.: 86.5 per minute
Test subject [3]; [8]
  Average heart rate after 3rd dos.: 111.2 per minute
Test subject [3]; [9]
  Average heart rate after 2nd dos.: 111.0 per minute
[1]
  Suitability for reducing the oxygen consumption during physical work: suitable
Test subject [4]; 1 mg series
  Change in oxygen consumption after 2nd dos.: +69%
  Change in oxygen consumption after 4th dos.: −49%
Test subject [4]; [10]
  Average heart rate after 1st dos.: 76.3 per minute
Test subject [4]; [11]
  Change in oxygen consumption after 3rd dos.: 0%

## CN1CCN(C2=Nc3ccccc3Sc3ccc(Cl)cc32)CC1 [clothiapine]
Test subject [2]; 2nd dosage 1 mg, after 25 mg of clomipramine, 100 W
  Change in the oxygen consumption after 2nd dosage: −70%
Test subject [2]; [6]
  Change in the oxygen consumption after 2nd dosage: −65%
Test subject [2]; 2nd dosage 1 mg, after 1st dosage of 25 mg of clomipramine, 100 W
  Average heart rate after 2nd dosage: 100.0 per minute
Test subject [2]; [7]
  Average heart rate after 2nd dosage: 88.9 per minute
Test subject [3]; 1 mg series
  Average heart rate after 4th dos.: 82.2 per minute
Test subject [3]; [8]
  Average heart rate after 3rd dos.: 113.9 per minute
Test subject [3]; [9]
  Average heart rate after 2nd dos.: 112.4 per minute
[1]
  Suitability for reducing the oxygen consumption during physical work: suitable
Test subject [4]; 1 mg series
  Change in oxygen consumption after 2nd dos.: +78%
  Change in oxygen consumption after 4th dos.: −63%
Test subject [4]; [10]
  Average heart rate after 1st dos.: 73.2 per minute
Test subject [4]; [11]
  Change in oxygen consumption after 3rd dos.: +3%

## COc1ccc2c(c1OC)C(=O)O[C@@H]2[C@H]1c2c(cc3c(c2OC)OCO3)CCN1C [noscapine]
[1]
  Suitability for reducing the oxygen consumption during physical work: suitable
